In the NIST ThermoML archive (doi:10.1021/je060271a):

Conditions: 323.15 K, Liquid, Vibrating tube method

CCCCC(=O)OCC(COC(=O)CCCC)(COC(=O)CCCC)COC(=O)CCCC [pentaerythritol tetrapentanoate]
Conditions | mass density [kg/m3]
5507 kPa | 998.5
5515.1 kPa | 998.5
5521.3 kPa | 998.4
5527 kPa | 998.5
5546.7 kPa | 998.6
5564 kPa | 998.6
5581.9 kPa | 998.5
5599.5 kPa | 998.6
5620.8 kPa | 998.5
5638.1 kPa | 998.7
5660 kPa | 998.6
5678.2 kPa | 998.6
5695.6 kPa | 998.6
5714.3 kPa | 998.7
5736.6 kPa | 998.6
5755.1 kPa | 998.7
5774.3 kPa | 998.6
5797.1 kPa | 998.8
5816.3 kPa | 998.9
5836 kPa | 998.8
5854.9 kPa | 998.8
5878.6 kPa | 998.8
5898.5 kPa | 998.8
5917.1 kPa | 998.8
5937.2 kPa | 998.9
5961 kPa | 998.8
5982 kPa | 998.9
6002.4 kPa | 998.9
6023.3 kPa | 998.8
6048 kPa | 998.8
6068.6 kPa | 999
6091.7 kPa | 998.8
6114.3 kPa | 999
6135.5 kPa | 998.8
6162.7 kPa | 998.9
6183.1 kPa | 998.9
6205.3 kPa | 999
6226.8 kPa | 999.1
6253.6 kPa | 999.1
6278.3 kPa | 999
6299 kPa | 999
6322 kPa | 999.1
6349.8 kPa | 999.1
6371.6 kPa | 999.1
6395.8 kPa | 999.1
6420.4 kPa | 999
6446 kPa | 999.2
6472.8 kPa | 999.2
6495.8 kPa | 999.3
6521.7 kPa | 999.2
6549.3 kPa | 999.2
6572.1 kPa | 999.2
6596.7 kPa | 999.3
6622.6 kPa | 999.3
6652.8 kPa | 999.2
6676.5 kPa | 999.3
6703.4 kPa | 999.2
6735.7 kPa | 999.4
6761.8 kPa | 999.4
6788.6 kPa | 999.5
6816.1 kPa | 999.4
6841.8 kPa | 999.4
6873.6 kPa | 999.5
6900.5 kPa | 999.4
6928.9 kPa | 999.6
6961.3 kPa | 999.6
6989.5 kPa | 999.5
7017 kPa | 999.6
7044.4 kPa | 999.4
7079.5 kPa | 999.6
7110.4 kPa | 999.7
7137.5 kPa | 999.7
7169.3 kPa | 999.6
7204.5 kPa | 999.8
7233.8 kPa | 999.7
7265.1 kPa | 999.7
7295.5 kPa | 999.8
7332.3 kPa | 999.8
7362 kPa | 999.7
7393.2 kPa | 999.8
7425.1 kPa | 999.9
7462.4 kPa | 999.8
7497 kPa | 1000
7529.6 kPa | 999.9
7562.2 kPa | 999.9
7602.1 kPa | 1000
7634.4 kPa | 999.9
7668.9 kPa | 1000
7702.7 kPa | 1000
7742.2 kPa | 1000
7778.3 kPa | 1000.1
7818.5 kPa | 1000.1
7854.9 kPa | 1000.1
7890.7 kPa | 1000.1
8008.7 kPa | 1000.2
8045.6 kPa | 1000.3
8085.8 kPa | 1000.3
8132.2 kPa | 1000.2
8166 kPa | 1000.4
8197.3 kPa | 1000.4
8234.5 kPa | 1000.4
8265.2 kPa | 1000.4
8297.6 kPa | 1000.5
8334.6 kPa | 1000.5
8366.3 kPa | 1000.6
8398.2 kPa | 1000.5
8437.2 kPa | 1000.5
8471.2 kPa | 1000.5
8502.6 kPa | 1000.5
8536.2 kPa | 1000.6
8575.9 kPa | 1000.5
8609.5 kPa | 1000.6
8644.9 kPa | 1000.7
8686.6 kPa | 1000.7
8721.6 kPa | 1000.7
8763.3 kPa | 1000.7
8798.5 kPa | 1000.8
8835.2 kPa | 1000.8
8871.2 kPa | 1000.7
8918.5 kPa | 1000.9
8948.2 kPa | 1000.9
8992.3 kPa | 1000.9
9029 kPa | 1000.9
9074.5 kPa | 1000.9
9112.8 kPa | 1001
9150.4 kPa | 1001.1
9188.8 kPa | 1001.1
9235.3 kPa | 1001
9275.3 kPa | 1001.2
9315.5 kPa | 1001.1
9364.1 kPa | 1001.1
9405.6 kPa | 1001.2
9494 kPa | 1001.2
9537.2 kPa | 1001.2
9589.3 kPa | 1001.2
9624.3 kPa | 1001.3
9656.6 kPa | 1001.3
9695.6 kPa | 1001.3
9727.6 kPa | 1001.5
9873 kPa | 1001.5
9976.5 kPa | 1001.6
10018 kPa | 1001.6
10129 kPa | 1001.8
10165 kPa | 1001.7
10208 kPa | 1001.8
10280 kPa | 1001.7
10325 kPa | 1001.8
10362 kPa | 1001.9
10400 kPa | 1001.9
10447 kPa | 1001.9
10486 kPa | 1001.9
10527 kPa | 1002
10577 kPa | 1001.8
10620 kPa | 1002.1
10661 kPa | 1002
10691 kPa | 1002.1
10711 kPa | 1002.1
10731 kPa | 1002.2
10755 kPa | 1002.1
10775 kPa | 1002
10795 kPa | 1002.1
10820 kPa | 1002.2
10840 kPa | 1002.2
10860 kPa | 1002.2
10885 kPa | 1002.2
10905 kPa | 1002.2
10926 kPa | 1002.2
10951 kPa | 1002.2
10971 kPa | 1002.3
10992 kPa | 1002.2
11018 kPa | 1002.3
11039 kPa | 1002.2
11060 kPa | 1002.4
11085 kPa | 1002.4
11106 kPa | 1002.3
11128 kPa | 1002.4
11153 kPa | 1002.4
11175 kPa | 1002.3
11197 kPa | 1002.4
11223 kPa | 1002.5
11245 kPa | 1002.5
11267 kPa | 1002.4
11289 kPa | 1002.5
11316 kPa | 1002.5
11339 kPa | 1002.5
11366 kPa | 1002.7
11388 kPa | 1002.6
11411 kPa | 1002.6
11434 kPa | 1002.6
11461 kPa | 1002.6
11484 kPa | 1002.6
11534 kPa | 1002.6
11558 kPa | 1002.6
11581 kPa | 1002.6
11610 kPa | 1002.5
11633 kPa | 1002.7
11657 kPa | 1002.6
11681 kPa | 1002.7
11710 kPa | 1002.7
11735 kPa | 1002.8
11759 kPa | 1002.7
11784 kPa | 1002.8
11813 kPa | 1002.8
11838 kPa | 1002.8
11862 kPa | 1002.9
11892 kPa | 1002.9
11917 kPa | 1003
11942 kPa | 1002.8
11971 kPa | 1003
11996 kPa | 1003
12022 kPa | 1002.9
12053 kPa | 1003
12074 kPa | 1003.1
12105 kPa | 1003
12130 kPa | 1003
12156 kPa | 1003
12187 kPa | 1003
12213 kPa | 1003.1
12244 kPa | 1003.1
12271 kPa | 1003.1
12297 kPa | 1003.2
12324 kPa | 1003.2
12355 kPa | 1003.2
12382 kPa | 1003.4
12415 kPa | 1003.3
12442 kPa | 1003.1
12469 kPa | 1003.2
12502 kPa | 1003.3
12529 kPa | 1003.4
12557 kPa | 1003.4
12585 kPa | 1003.4
12618 kPa | 1003.2
12646 kPa | 1003.4
12674 kPa | 1003.4
12736 kPa | 1003.4
12770 kPa | 1003.5
12800 kPa | 1003.3
12828 kPa | 1003.6
12858 kPa | 1003.5
12892 kPa | 1003.5
12922 kPa | 1003.7
12957 kPa | 1003.7
12986 kPa | 1003.6
13016 kPa | 1003.7
13052 kPa | 1003.6
13082 kPa | 1003.6
13112 kPa | 1003.7
13149 kPa | 1003.7
13179 kPa | 1003.7
13210 kPa | 1003.7
13242 kPa | 1003.9
13279 kPa | 1003.8
13310 kPa | 1003.9
13347 kPa | 1003.9
13378 kPa | 1003.7
13410 kPa | 1003.9
13443 kPa | 1004
13482 kPa | 1003.9
13514 kPa | 1004
13548 kPa | 1004
13581 kPa | 1004
13620 kPa | 1004
13654 kPa | 1004
13687 kPa | 1004.2
13727 kPa | 1004
13760 kPa | 1004.1
13794 kPa | 1004.2
13829 kPa | 1004.2
13870 kPa | 1004.3
13945 kPa | 1004.2
13980 kPa | 1004.2
14049 kPa | 1004.4
14091 kPa | 1004.3
14126 kPa | 1004.4
14162 kPa | 1004.3
14284 kPa | 1004.4
14320 kPa | 1004.4
14358 kPa | 1004.5
14402 kPa | 1004.5
14440 kPa | 1004.6
14477 kPa | 1004.6
14515 kPa | 1004.6
14560 kPa | 1004.7
14600 kPa | 1004.6
14639 kPa | 1004.7
14678 kPa | 1004.6
14717 kPa | 1004.7
14764 kPa | 1004.7
14803 kPa | 1004.7
14843 kPa | 1004.8
14891 kPa | 1004.9
14931 kPa | 1004.9
14972 kPa | 1005
15020 kPa | 1004.9
15062 kPa | 1004.9
15103 kPa | 1005
15147 kPa | 1005
15192 kPa | 1005.1
15243 kPa | 1005.1
15287 kPa | 1005.1
15332 kPa | 1005.1
15386 kPa | 1005.2
15429 kPa | 1005.1
15462 kPa | 1005.2
15497 kPa | 1005.2
15526 kPa | 1005.2
15556 kPa | 1005.3
15585 kPa | 1005.3
15621 kPa | 1005.2
15652 kPa | 1005.4
15685 kPa | 1005.4
15723 kPa | 1005.4
15754 kPa | 1005.5
15779 kPa | 1005.4
15803 kPa | 1005.4
15822 kPa | 1005.5
15842 kPa | 1005.5
15865 kPa | 1005.6
15885 kPa | 1005.5
15904 kPa | 1005.6
